Legend:
[1] = test system: H1 human embryonic stem cells; assay: Bioassay validation: activin A titration with or without Wnt3a, cell number and SOX17 intensity (Example 2); assay type: cell-based; conditions: with 20 ng/ml Wnt3a days 1-2, four-day assay
Text: Activin A is an important mediator of differentiation in a broad range of cell types, including differentiation of embryonic stem cells to definitive endoderm. […] A bioassay that measures this differentiation in human embryonic stem cells was adapted in miniaturized format to 96-well plates for screening purposes. Validation was completed using treatment with commercial sources of activin A and Wnt3a recombinant proteins and measuring protein expression of the transcription factor SOX17, considered to be a representative marker of definitive endoderm.
Briefly, clusters of H1 human embryonic stem cells were grown on reduced growth factor […]™ (Invitrogen; Cat #356231)-coated tissue culture plastic. Cells were passaged using collagenase (Invitrogen; Cat #17104-019) treatment and gentle scraping, washed to remove residual enzyme, and plated in a ratio of 1:1 (surface area) on reduced growth factor […]™-coated 96-well black plates (Packard ViewPlates; Perkin Elmer; Cat #6005182). […]
Imaging was performed using an IN Cell Analyzer 1000 (GE Healthcare) utilizing the 51008bs dichroic for cells stained with Hoechst 33342 and Alexa Fluor 488. […] Segmentation for the nuclei was determined based on gray-scale levels (baseline range 100-300) and nuclear size. […]

[2] = test system: H1 human embryonic stem cells; assay: Single-cell monolayer assay with EGF/FGF4, serum free, no activin A (Example 10, Table 10); assay type: cell-based; conditions: No AA (without Wnt3a); FGF(100 ng/ml); EGF(100 ng/ml)

Row | Compound | EC50 for induction of SOX17 expression [1] | Optimal activin A effects for induction of SOX17 expression (concentration range) [1] | Sox17 Expression, Average Total Intensity [2]
1 | Activin A: recombinant human activin A (PeproTech), TGF-beta family member | 0.03 to 0.05 µg/mL | 100 to 200 ng/mL | –
2 | O=C1CCN2CCN(CC2)Cc2cc(Cl)cc(c2)Nc2ncnc(n2)-c2cncc(c2)CCCN1 [Compound 34, 5-Chloro-1,8,10,12,16,22,26,32-octaazapentacyclo[24.2.2.1˜3.7˜0.1˜9,13˜0.1˜14.18˜]tritriaconta-3(33), 4,6,9(32), 10,12,14(31), 15,17-nonaen-23-one] | – | – | 1.13E+08
